In US20260116910A1, “POLYCYCLIC COMPOUNDS AND METHODS THEREOF” (HEPAITECH (BEIJING) BIOPHARMA TECHNOLOGY CO., LTD., priority 2021, published 2026):
pEC50: −log10 of the molar value.

Legend:
[1] = biological target: MRGPRX4 (Homo sapiens, UniProt Q96LA9); test: MRGPRX4 activation, Fluo-8 Ca2+ FLIPR assay in HEK293T cells stably expressing MRGPRX4; type: cell-based; set-up: key to MRGPRX4 activation, Average / MRGPRX4 activation, Ave.: fluorescence change dF/F0; details: for EC50: MRGPRX4 activation, Ca2+ fluorescence, no activation in tested range reported as III, read-out: Activity (EC50 μM)
Summary of the method: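 Response measured as dF/F0: 30 s baseline, then 150 s after compound addition on FLIPR Tetra, in HHBS after 40-60 min room-temperature loading with 2 μM Fluo-8 AM.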

[2] = biological target: T1, human FXR (NR1H4) (Homo sapiens, UniProt Q96RI1); test: Human FXR (NR1H4) agonist assessment, FXRE-NanoLuc reporter in HEK293T cells; type: cell-based; details: FXR activation, HEK293T FXRE-NanoLuc reporter, 24 hr; for pEC50: read-out: EC50
T1 sequence (Q96RI1 1-476 isoform Q96RI1-1): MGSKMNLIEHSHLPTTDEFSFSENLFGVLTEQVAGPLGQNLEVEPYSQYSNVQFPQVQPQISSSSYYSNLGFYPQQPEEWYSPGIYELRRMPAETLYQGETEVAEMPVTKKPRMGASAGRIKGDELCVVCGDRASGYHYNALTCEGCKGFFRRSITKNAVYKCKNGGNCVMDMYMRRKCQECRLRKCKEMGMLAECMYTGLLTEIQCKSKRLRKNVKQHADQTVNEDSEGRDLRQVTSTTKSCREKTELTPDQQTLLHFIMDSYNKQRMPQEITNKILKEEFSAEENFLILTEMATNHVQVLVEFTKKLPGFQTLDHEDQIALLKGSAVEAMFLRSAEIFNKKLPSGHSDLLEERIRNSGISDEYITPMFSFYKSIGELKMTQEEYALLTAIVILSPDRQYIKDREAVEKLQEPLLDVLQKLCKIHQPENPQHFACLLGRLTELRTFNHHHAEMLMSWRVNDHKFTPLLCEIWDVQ
Summary of the method: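 Read-out was NanoLuc luminescence in culture medium, measured 5 min after adding coelenterazine. Cells were HEK293T stably carrying human FXR and an FXRE reporter, exposed to compound for 24 hr at 37 °C. Vehicle was 0.01% DMSO. EC50 was obtained from sigmoid fits of gradient dilutions.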

Chain of MRGPRX4 (Q96LA9 whole entry): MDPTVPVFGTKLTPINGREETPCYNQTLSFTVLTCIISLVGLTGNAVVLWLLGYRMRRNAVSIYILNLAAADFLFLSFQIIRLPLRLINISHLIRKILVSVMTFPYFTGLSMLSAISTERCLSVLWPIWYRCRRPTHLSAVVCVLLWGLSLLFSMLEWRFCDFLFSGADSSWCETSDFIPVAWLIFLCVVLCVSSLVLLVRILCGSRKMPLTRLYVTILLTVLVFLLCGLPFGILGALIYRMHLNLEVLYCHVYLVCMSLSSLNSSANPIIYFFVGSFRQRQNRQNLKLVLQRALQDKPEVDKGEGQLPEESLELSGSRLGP

SMILES	MRGPRX4 activation, Average ([1]; E3-9, Conc. (Log[M]) −4.0)	MRGPRX4 activation, Average ([1]; E3-9, Conc. (Log[M]) −4.5)	MRGPRX4 activation, Average ([1]; E3-9, Conc. (Log[M]) −5.0)	MRGPRX4 activation, Average ([1]; E3-9, Conc. (Log[M]) −5.4)	MRGPRX4 activation, Average ([1]; E3-9, Conc. (Log[M]) −5.9)	MRGPRX4 activation, Average ([1]; E3-9, Conc. (Log[M]) −6.4)	MRGPRX4 activation, Average ([1]; E3-9, Conc. (Log[M]) −6.9)	MRGPRX4 activation, Average ([1]; E3-9, Conc. (Log[M]) −7.3)	MRGPRX4 activation, Average ([1]; E3-9, Conc. (Log[M]) −7.8)	EC50 [1] [µM]	Efficacy (maximum measured induction of NanoLuc, normalized to CDCA set as 100%) [2]	pEC50 [2]	MRGPRX4 activation, fluorescence change (dF/F0), Average ([1]; Conc. (Log[M]) −4)	MRGPRX4 activation, fluorescence change (dF/F0), Average ([1]; Conc. (Log[M]) −4.5)	MRGPRX4 activation, fluorescence change (dF/F0), Average ([1]; Conc. (Log[M]) −5)	MRGPRX4 activation, fluorescence change (dF/F0), Average ([1]; Conc. (Log[M]) −5.5)	MRGPRX4 activation, fluorescence change (dF/F0), Average ([1]; Conc. (Log[M]) −6)	MRGPRX4 activation, fluorescence change (dF/F0), Average ([1]; Conc. (Log[M]) −7)	MRGPRX4 activation, fluorescence change (dF/F0), Average ([1]; Conc. (Log[M]) −8)	MRGPRX4 activation, fluorescence change (dF/F0), Average ([1]; Conc. (Log[M]) −9)	also measured
CC[C@H]1[C@@H](O)[C@@H]2[C@H](CC[C@]3(C)[C@@H]([C@H](C)CCNC(=O)NS(=O)(=O)c4cccs4)CC[C@@H]23)[C@@]2(C)CCCC[C@@H]12 [5-25]	0.393	0.016	0.001	0.016	0.011	0.011	0.008	0.013	0.013	> 100	C (100%<efficacy <=300%)	5.00 to 6.00	–	–	–	–	–	–	–	–	MRGPRX4 activation, Average ([1]; E3-9, Conc. (Log[M]) −8.3): 0.018
CC[C@H]1[C@@H](O)[C@@H]2[C@H](CC[C@]3(C)[C@@H]([C@H](C)CCNC(=O)NS(=O)(=O)c4ccc5c(c4)CCN5C(C)=O)CC[C@@H]23)[C@@]2(C)CCCC[C@@H]12 [5-4]	–	–	–	–	–	–	–	–	–	> 100	B (300%<efficacy <=400%)	> 6.00	0.097	0.017	0.020	0.020	0.013	0.017	–	–	–
CC[C@H]1[C@@H](O)[C@@H]2[C@H](CC[C@]3(C)[C@@H]([C@H](C)CCC(=O)O)CC[C@@H]23)[C@@]2(C)CC[C@H](F)C[C@@H]12 [1-1]	–	–	–	–	–	–	–	–	–	> 100	C (100%<efficacy <=300%)	5.00 to 6.00	–	–	–	–	–	–	–	–	–
CC[C@H]1[C@@H](O)[C@@H]2[C@H](CC[C@]3(C)[C@@H]([C@H](C)CCNC(=O)NS(=O)(=O)c4cc(F)cc(F)c4)CC[C@@H]23)[C@@]2(C)CCCC[C@@H]12 [5-24]	–	–	–	–	–	–	–	–	–	–	B (300%<efficacy <=400%)	> 6.00	–	0.012	–	–	–	–	–	–	MRGPRX4 activation, fluorescence change (dF/F0), Average ([1]; Conc. (Log[M]) −4.0): 0.021; MRGPRX4 activation, fluorescence change (dF/F0), Average ([1]; Conc. (Log[M]) −5.0): 0.021; MRGPRX4 activation, fluorescence change (dF/F0), Average ([1]; Conc. (Log[M]) −5.4): 0.019; MRGPRX4 activation, fluorescence change (dF/F0), Average ([1]; Conc. (Log[M]) −5.9): 0.011; MRGPRX4 activation, fluorescence change (dF/F0), Average ([1]; Conc. (Log[M]) −6.4): 0.013; MRGPRX4 activation, fluorescence change (dF/F0), Average ([1]; Conc. (Log[M]) −6.9): 0.013; MRGPRX4 activation, fluorescence change (dF/F0), Average ([1]; Conc. (Log[M]) −7.3): 0.013; MRGPRX4 activation, fluorescence change (dF/F0), Average ([1]; Conc. (Log[M]) −7.8): 0.008; MRGPRX4 activation, fluorescence change (dF/F0), Average ([1]; Conc. (Log[M]) −8.3): 0.011
CC[C@H]1[C@@H](O)[C@@H]2[C@H](CC[C@]3(C)[C@@H]([C@H](C)CCC(=O)OC)CC[C@@H]23)[C@@]2(C)CCCC[C@@H]12 [1-4]	–	–	–	–	–	–	–	–	–	> 100	C (100%<efficacy <=300%)	5.00 to 6.00	0.098	0.004	−0.014	−0.004	−0.011	−0.006	−0.009	−0.020	–
CC[C@H]1[C@@H](O)[C@@H]2[C@H](CC[C@]3(C)[C@@H]([C@H](C)CCC(=O)O)CC[C@@H]23)[C@@]2(C)CCC(F)(F)C[C@@H]12 [compound 55]	0.006	0.004	0.018	0.023	0.019	0.019	0.016	0.019	0.016	> 100	C (100%<efficacy <=300%)	> 6.00	–	–	–	–	–	–	–	–	MRGPRX4 activation, Average ([1]; E3-9, Conc. (Log[M]) −8.3): 0.018
CC[C@H]1[C@@H](OC(=O)c2cccc(I)c2)[C@@H]2[C@H](CC[C@]3(C)C([C@H](C)CCC(=O)OC)=CC[C@@H]23)[C@@]2(C)CCCC[C@@H]12 [3-1]	–	–	–	–	–	–	–	–	–	> 100	C (100%<efficacy <=300%)	5.00 to 6.00	0.008	0.004	−0.027	−0.004	−0.017	0.005	0.001	−0.001	–
CC[C@H]1[C@@H](O)[C@@H]2[C@H](CC[C@]3(C)[C@@H]([C@H](C)CNC(=O)NS(=O)(=O)c4ccc(C(C)(C)CF)cc4)CC[C@@H]23)[C@@]2(C)CCCC[C@@H]12 [20-1]	0.018	0.016	0.019	0.019	0.021	–	–	–	–	> 100	A (efficacy >400%)	> 6.00	–	–	–	–	–	–	–	–	–
C[C@H](CC/C=C/C(=O)O)[C@H]1CC[C@H]2[C@@H]3CC[C@@H]4C[C@H](O)CC[C@]4(C)[C@H]3C[C@H](O)[C@]12C [RC-7]	–	–	–	–	–	–	–	–	–	< 50	C (100%<efficacy <=300%)	5.00 to 6.00	0.049	0.030	−0.027	−0.038	−0.035	0.007	−0.030	−0.005	–
CC[C@H]1[C@@H](O)[C@@H]2[C@H](CC[C@]3(C)[C@@H]([C@H](C)CCNC(=O)NS(=O)(=O)c4cc(F)ccc4F)CC[C@@H]23)[C@@]2(C)CC[C@H](F)C[C@@H]12 [9-2]	0.035	0.001	0.002	0.019	0.018	0.018	0.014	0.019	0.016	50 to 100	B (300%<efficacy <=400%)	> 6.00	0.655	0.162	0.011	−0.068	−0.030	−0.029	−0.035	−0.072	MRGPRX4 activation, Average ([1]; E3-9, Conc. (Log[M]) −8.3): 0.019
